The values below come from US20200363414A1, “Neoantigen Identification for T-Cell Therapy” (Gritstone Oncology, Inc., priority 2018, published 2020).

Where no end group is shown, it is not given here.

The subject of this test is neoantigen-reactive T-cells (patient PBMCs). In words: IFN-gamma ELISpot of in vitro expanded (IVS) NSCLC patient PBMCs. Type of test: cell-based, human. The note with it: IFN-gamma ELISpot after 14 day IVS culture of NSCLC patient PBMCs.
Description: To focus the analysis on likely CD8 responses, the prioritized peptides were synthesized as 8-11 mer minimal epitopes (Methods), and then peripheral blood mononuclear cells (PBMCs) were cultured with the synthesized peptides in short in vitro stimulation (IVS) cultures to expand neoantigen-reactive T-cells (Supplementary Table 3). After two weeks the presence of antigen-specific T-cells was assessed using IFN-gamma ELISpot against the prioritized neoepitopes. In seven patients for whom sufficient PBMCs were available, separate experiments were also performed to fully or partially deconvolve the specific antigens recognized.
For each patient, predicted neoantigens were combined into 2 pools of 10 peptides each according to model ranking and any sequence homologies (homologous peptides were separated into different pools). Then, for each patient, the in vitro expanded PBMCs for the patient were stimulated with the 2 patient-specific neoantigen peptide pools in IFN-gamma ELISpot. Data in FIG. 15A are presented as spot forming units (SFU) per 105 plated cells with background (corresponding DMSO negative controls) subtracted.
Cells were seeded at 2×10^6 cells/well and fed every 2-3 days by replacing 2/3 of the culture media.
Detection of IFNγ-producing T-cells was performed by ELISpot assay^142. Briefly, PBMCs (ex vivo or post in vitro expansion) were harvested, washed in serum free RPMI (VWR International) and cultured in the presence of controls or cognate peptides in OpTmizer T-cell Expansion Basal Medium (ex vivo) or in ImmunoCult™-XF T-cell Expansion Medium (expanded cultures) in ELISpot Multiscreen plates (EMD Millipore) coated with anti-human IFNγ capture antibody (Mabtech, Cincinatti, Ohio, USA). Following 18 h incubation in a 5% CO2, 37° C., humidified incubator, cells were removed from the plate and membrane-bound IFNγ was detected using anti-human IFNγ detection antibody (Mabtech), Vectastain Avidin peroxidase complex (Vector Labs, Burlingame, Calif., USA) and AEC Substrate (BD Biosciences, San Jose, Calif., USA). […] Data are presented as spot forming units (SFU) per plated number of cells.
Regarding EVADAATLTM, the “T-cell recognition of individual neoantigen peptide” value (from here on “T-cell recognition”) is on record as “peptide-specific T-cell response was deconvolved”. For GTKKDVDVLK the value was “recognized by CD8 T-cells”.

Consider DTVEYPYTSF, for which the “T-cell recognition” value was “peptide-specific T-cell response was deconvolved”. For the sequence QDVSVQVER, the “T-cell recognition” value is given as “peptide-specific T-cell response was deconvolved”. As for DENITTIQF, the entry is “peptide-specific T-cell response was deconvolved”.
